Patent US20050004126A1 (priority 2001, published 2005)
Values joined by “and” are separate entries in the source; they are usually repeats but may differ in a detail not shown here. Equal entries are not always repeated. Structures can show the parent of a compound that is named as a salt. Where two headings read alike, the source gives them in different places.

What was measured:
[1] = molecular target: T1, MMP-1FL (full-length interstitial collagenase) (Homo sapiens, UniProt P03956); test: Thiopeptolide hydrolysis assay, MMP-1; format: biochemical; conditions: read-out: MMP01 IC50
T1 sequence (P03956 100-469): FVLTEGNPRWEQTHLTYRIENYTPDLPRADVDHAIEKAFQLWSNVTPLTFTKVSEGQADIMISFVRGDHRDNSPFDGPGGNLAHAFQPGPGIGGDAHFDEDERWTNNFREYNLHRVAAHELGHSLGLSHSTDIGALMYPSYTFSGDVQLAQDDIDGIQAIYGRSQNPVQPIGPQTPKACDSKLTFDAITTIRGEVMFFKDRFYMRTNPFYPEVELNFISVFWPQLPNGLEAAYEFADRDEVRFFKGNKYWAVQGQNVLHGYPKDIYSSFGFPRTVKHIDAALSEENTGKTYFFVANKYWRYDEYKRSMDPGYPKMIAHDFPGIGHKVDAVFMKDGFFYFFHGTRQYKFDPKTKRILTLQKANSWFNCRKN

[2] = molecular target: MMP-3CD (catalytic domain of stromelysin) (Homo sapiens, UniProt P08254); test: Thiopeptolide hydrolysis assay, MMP-3; format: biochemical; conditions: read-out: MMP03 IC50;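 note: inhibition of thiopeptolide substrate (100 µM) cleavage by the MMP-3 catalytic domain, detected with DTNB at pH 6.0 with CaCl2, hydrolysis compared against runs lacking inhibitor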
Sequence of MMP-3CD (catalytic domain of stromelysin) (P08254 100-272 limits assumed): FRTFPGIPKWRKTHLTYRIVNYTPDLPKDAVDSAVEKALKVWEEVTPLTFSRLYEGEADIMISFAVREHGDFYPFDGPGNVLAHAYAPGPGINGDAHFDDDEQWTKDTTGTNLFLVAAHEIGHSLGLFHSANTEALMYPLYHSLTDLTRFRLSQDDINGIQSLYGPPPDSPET
Procedure: They measure the amount by which a test compound reduces the hydrolysis of a thiopeptolide substrate caused by a matrix metalloproteinase enzyme.
Thiopeptolide substrates show virtually no decomposition or hydrolysis in the absence of a matrix metalloproteinase enzyme. A typical thiopeptolide substrate commonly utilized for assays is Ac-Pro-Leu-Gly-thioester-Leu-Leu-Gly-OEt. A 100 μL assay mixture will contain 50 mM of 2-morpholinoethane sulfonic acid monohydrate (MES, pH 6.0) 10 mM CaCl2, 100 μM thiopeptolide substrate, and 1 mM 5,5′-dithio-bis-(2-nitro-benzoic acid) (DTNB). […] Assays are carried out with and without matrix metalloproteinase inhibitor compounds, and the amount of hydrolysis is compared for a determination of inhibitory activity of the test compounds.

[3] = molecular target: T2, MMP-13CD (catalytic domain of collagenase 3) (Homo sapiens, UniProt P45452); test: Thiopeptolide hydrolysis assay, MMP-13;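 note: inhibition of enzymatic thiopeptolide substrate cleavage (100 µM) in pH 6.0 MES buffer with CaCl2 and DTNB, comparing hydrolysis with versus without inhibitor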
[4] = molecular target: T2, MMP-13CD (catalytic domain of collagenase 3); test: biochemical

Structure (SMILES) | IC50 ([1]; Table II) [µM] | IC50 ([2]; Table II) [µM] | IC50 ([3]; MMP13 IC50 (nM), Table II) | IC50 [4] [µM] | IC50 ([1]; Table 1b) [µM] | IC50 ([2]; Table 1b) [µM] | IC50 ([3]; MMP13 IC50 (μM), Table 1b) [nM]
COC(=O)c1ccc(CNC(=O)c2cccc(C(=O)NCc3cccc(OC)c3)c2)cc1 | > 100 | 64 | 255 nM | – | – | – | –
COc1cccc(CNC(=O)c2cccc(C(=O)OCc3ccc(C(=O)O)cc3)c2)c1 | > 100 | > 100 | 44 nM | – | – | – | –
COc1cccc(CNC(=O)c2cccc(C(=O)NCc3ccc(C)cc3)c2)c1 | > 100 | 76 | 385 nM | – | – | – | –
COc1cccc(CNC(=O)c2cccc(C(=O)NCc3ccc([N+](=O)[O-])cc3)c2)c1 | > 100 | > 100 | 1140 nM | – | – | – | –
COc1cccc(CNC(=O)c2cccc(C(=O)NCc3ccc(Cl)c(Cl)c3)c2)c1 | > 100 | 68 | 555 nM | – | – | – | –
COc1cccc(CNC(=O)c2cccc(C(=O)NCc3ccc(Cl)cc3)c2)c1 | > 100 | > 100 | 503 nM | – | – | – | –
COc1ccc(CNC(=O)c2cccc(C(=O)NCc3cccc(OC)c3)c2)cc1 | > 100 | 40 | 415 nM | – | – | – | –
O=C(O)CN(Cc1ccccc1)C(=O)c1cccc(C(=O)NCc2ccc3c(c2)OCO3)c1 | > 100 | > 100 | 915 nM | – | – | – | –
Cn1c(=O)c2cc(C(=O)NCc3ccc4c(c3)OCO4)ccc2n(C)c1=O [1,3-Dimethyl-2,4-dioxo-1,2,3,4-tetrahydroquinazoline-6-carboxylic acid (benzo[1,3]dioxol-5-ylmethyl)amide] | – | – | – | 1.7 | – | – | –
CC(=O)c1ccc(C(=O)OCc2ccccc2)cc1C(=O)OCc1ccccc1 [4-Acetyl-isophthalic acid dibenzyl ester] | > 100 | > 100 | 8200 nM | – | – | – | –
COc1cccc(CNC(=O)c2ccc(OC)c(C(=O)NCc3cccc(OC)c3)c2)c1 [4-Methoxy-N,N′-bis-(3-methoxy-benzyl)-isophthalamide] | > 100 | > 100 | 180 nM | – | – | – | –
COc1ccc(C(=O)NCc2ccc(C)cc2)cc1C(=O)NCc1ccc(C)cc1 [4-Methoxy-N,N′-bis-(4-methyl-benzyl)-isophthalamide] | > 100 | > 100 | 7250 nM | – | – | – | –
COc1ccc(C(=O)OCc2ccccc2)cc1C(=O)OCc1ccccc1 [4-Methoxy-isophthalic acid dibenzyl ester] | > 100 | > 100 | 900 nM | – | – | – | –
COc1ccc(C(=O)OCc2ccncc2)cc1C(=O)OCc1ccncc1 [4-Methoxy-isophthalic acid dipyridin-4-ylmethyl ester] | > 100 | > 100 | 255 nM | – | – | – | –
Nc1cc(C(=O)OCc2ccccc2)cc(C(=O)OCc2ccccc2)c1 [5-Amino-isophthalic acid dibenzyl ester] | > 100 | 73 | 1100 nM | – | – | – | –
COc1ccc(CNC(=O)c2cn3c(=O)n(Cc4ccc(Cl)c(Cl)c4)c(=O)cc3s2)cc1 [6-(3,4-Dichloro-benzyl)-5,7-dioxo-6,7-dihydro-5H-thiazolo[3,2-c]pyrimidine-2-carboxylic acid 4-methoxy-benzylamide] | – | – | – | – | > 100 | > 100 | 84
O=C(OCc1cccc(F)c1)c1cccc(C(=O)OCc2cccc(F)c2)c1 [Isophthalic acid bis-(3-fluoro-benzyl) ester] | > 100 | > 30 | 7830 nM | – | – | – | –
COc1cccc(COC(=O)c2cccc(C(=O)OCc3cccc(OC)c3)c2)c1 [Isophthalic acid bis-(3-methoxy-benzyl) ester] | > 100 | > 100 | 1150 nM | – | – | – | –
O=C(OCc1ccc(F)cc1)c1cccc(C(=O)OCc2ccc(F)cc2)c1 [Isophthalic acid bis-(4-fluoro-benzyl) ester] | > 100 | > 100 | 2330 nM | – | – | – | –
COc1ccc(COC(=O)c2cccc(C(=O)OCc3ccc(OC)cc3)c2)cc1 [Isophthalic acid bis-(4-methoxy-benzyl) ester] | > 100 | 51 | 1080 nM | – | – | – | –
O=C(OCc1ccccc1)c1cccc(C(=O)OCc2ccccc2)c1 [Isophthalic acid dibenzyl ester] | > 100 | > 30 | 2300 nM | – | – | – | –
COc1ccc(C(=O)NCc2ccc3c(c2)OCO3)cc1C(=O)NCc1ccc2c(c1)OCO2 [N,N′-Bis-1,3-benzodioxol-5-ylmethyl-4-methoxy-isophthalamide] | > 100 | 50 | 185 nM | – | – | – | –
O=C(NCc1cccc(Cl)c1)c1cccc(C(=O)NCc2cccc(Cl)c2)c1 [N,N′-Bis-(3-chloro-benzyl)-isophthalamide] | > 100 | 20 | 2300 nM | – | – | – | –

Structure (SMILES) | IC50 ([1]; Table II) [µM] | IC50 ([2]; Table II) [µM] | IC50 ([3]; MMP13 IC50 (nM), Table II) | IC50 [4] [µM] | IC50 ([1]; Table 1b) [µM] | IC50 ([2]; Table 1b) [µM] | IC50 ([3]; MMP13 IC50 (μM), Table 1b) [nM]
O=C(NCc1cccc(F)c1)c1cccc(C(=O)NCc2cccc(F)c2)c1 [N,N′-Bis-(3-fluoro-benzyl)-isophthalamide] | > 100 | > 100 | 5650 nM | – | – | – | –
COc1cccc(CNC(=O)c2cccc(C(=O)NCc3cccc(OC)c3)c2)c1 [N,N′-Bis-(3-methoxy-benzyl)-isophthalamide] | > 100 | > 100 | 1350 nM | – | – | – | –
O=C(NCc1ccc(Cl)cc1)c1cccc(C(=O)NCc2ccc(Cl)cc2)c1 [N,N′-Bis-(4-chloro-benzyl)-isophthalamide] | 79 | 9.4 | 5500 nM | – | – | – | –
COc1cc(CNC(=O)c2cccc(C(=O)NCc3ccc(F)c(OC)c3)c2)ccc1F [N,N′-Bis-(4-fluoro-3-methoxy-benzyl)-isophthalamide] | > 100 | > 100 | 930 nM | – | – | – | –
O=C(NCc1ccc(F)cc1)c1cccc(C(=O)NCc2ccc(F)cc2)c1 [N,N′-Bis-(4-fluoro-benzyl)-isophthalamide] | > 100 | > 100 | 2350 nM | – | – | – | –
COc1ccc(CNC(=O)c2cccc(C(=O)NCc3ccc(OC)cc3)c2)cc1 [N,N′-Bis-(4-methoxy-benzyl)-isophthalamide] | > 100 | > 100 | 1000 nM and 2740 nM | – | – | – | –
COc1ccc(C(=O)NCc2ccccc2)cc1C(=O)NCc1ccccc1 [N,N′-Dibenzyl-4-methoxy-isophthalamide] | > 100 | > 100 | 1800 nM and 1100 nM | – | – | – | –
COc1ccc(CNC(=O)c2cccc(C(=O)NCc3ccccc3)c2)cc1 [N-Benzyl-N′-(4-methoxy-benzyl)-isophthalamide] | > 100 | > 100 | 2420 nM | – | – | – | –
Cc1c(=O)n(Cc2ccc(C(=O)OCCN(C)C)cc2)c(=O)n2cc(C(=O)NCc3ccncc3)sc12 [dihydrochloride] | – | – | – | – | > 100 | > 100 | 235
COc1ccc(CNC(=O)c2cn3c(=O)n(Cc4ccc(C(=O)OCCN(C)C)cc4)c(=O)c(C)c3s2)cc1 [hydrochloride] | – | – | – | – | > 30 | > 100 | 45.5
Cc1c(=O)n(Cc2ccc(Br)cc2)c(=O)n2cc(C(=O)NCc3ccncc3)sc12 [hydrochloride] | – | – | – | – | > 30 | > 30 | 36.5
Cc1c(=O)n(Cc2ccc(C#N)cc2)c(=O)n2cc(C(=O)NCc3ccncc3)sc12 [hydrochloride] | – | – | – | – | > 30 | > 30 | 54.7
Cc1c(=O)n(Cc2ccc(C(=O)N3CCOCC3)cc2)c(=O)n2cc(C(=O)NCc3ccncc3)sc12 [hydrochloride] | – | – | – | – | > 100 | > 100 | 37
Cc1c(=O)n(Cc2ccc(C(=O)OCCN(C)C)cc2)c(=O)n2cc(C(=O)NCc3ccc(F)cc3)sc12 [hydrochloride] | – | – | – | – | > 30 | > 100 | 71
Cc1c(=O)n(Cc2ccc(F)cc2)c(=O)n2cc(C(=O)NCc3ccncc3)sc12 [hydrochloride] | – | – | – | – | > 30 | > 30 | 60.5
Cc1c(=O)n(Cc2ccc(S(N)(=O)=O)cc2)c(=O)n2cc(C(=O)NCc3ccncc3)sc12 [hydrochloride] | – | – | – | – | > 30 | > 100 | 46.3
Cc1c(=O)n(Cc2cccc(C#N)c2)c(=O)n2cc(C(=O)NCc3ccncc3)sc12 [hydrochloride] | – | – | – | – | > 30 | > 30 | 173
Cc1c(=O)n(Cc2ccccc2)c(=O)n2cc(C(=O)NCc3ccncc3)sc12 [hydrochloride] | – | – | – | – | > 30 | > 30 | 48.7
Cc1c(=O)n(Cc2nccs2)c(=O)n2cc(C(=O)NCc3ccc(F)cc3)sc12 [hydrochloride] | – | – | – | – | > 100 | > 30 | 530
O=C(NCc1ccccc1)c1cn2c(=O)n(Cc3ccncc3)c(=O)cc2s1 [hydrochloride] | – | – | – | – | > 100 | > 100 | 1800
O=C(NCc1ccncc1)c1cn2c(=O)n(Cc3ccccc3)c(=O)cc2s1 [hydrochloride] | – | – | – | – | > 100 | 68 | 490
COc1ccc(CNC(=O)c2cn3c(=O)n(Cc4ccc(C(=O)O)cc4)c(=O)c(C)c3s2)cc1 [sodium salt] | – | – | – | – | > 100 | 36 | 1.75
